# Assays:
# [1] = system: mouse model of type-II diabetes or arteriosclerosis; conditions: oral administration; Non Patent Literature 18; cited from earlier work
# [2] = system: blood GIP and triglyceride (TG) concentrations; assay: Single-dose administration test in mice (lipid emulsion load after FABP4/5 inhibitor); assay type: in vivo, mice (C57BL/6J); conditions: 30 mg/kg body weight intragastric
# Experimental: Mice (C57BL/6J, male, 9 weeks old, n=4 to 5, CLEA Japan, Inc.) were fasted for 18 hours and then given intragastric administration of the FABP4/5 inhibitor BMS309403 (30 mg/kg body weight) in a solvent (10% 1-methyl-2-pyrrolione, 5% cremophor, and 2% ethanol) or only the solvent (control) through feeding needles under anesthesia. After 30 minutes, intragastric administration of lipid emulsions (triolein; 2 mg/kg body weight) was given. Blood was collected from the orbital sinus before and 10, 30, and 60 minutes after the administration of lipid emulsions. The blood thus collected was centrifuged at 11,000 rpm, 4° C. for 10 minutes to prepare the plasma. The blood GIP and triglyceride (TG) concentrations were measured with a GIP ELISA kit (for rat/mouse) (Merck Millipore Corporation) and a triglyceride E-test Wako (Wako Pure Chemical Industries, Ltd.), respectively.
# [3] = system: primary culture cells of the small intestine; assay: FABP4/5 inhibition test: lipid micelle (PPM)-stimulated GIP secretion in primary culture cells of the small intestine; assay type: cell-based, C57BL/6J mice; conditions: inhibitor 10 or 25 μM, 30 min pre-incubation and 30 min PPM stimulation; compared to PPM group; FIG. 3
# Description: C57BL/6J mice, 13 to 17 weeks old, were euthanized by cervical dislocation under anesthesia. The upper part of the small intestine (up to 10 cm immediately below the pylorus) was taken out and immersed in ice-cooled L-15 media (Sigma-Aldrich Co. LLC.). The small intestine was then transferred to ice-cooled PBS. Fat, blood vessels, etc. adhering to the intestinal tract were carefully removed. The inside of the lumen was washed with ice-cooled PBS and the tissue was cut into small pieces (pieces having an area of 2 mm^2 or smaller) with a scalpel. The small pieces were washed three to four times with PBS, to which 10 mL of DMEM (Sigma-Aldrich Co. LLC.) having Collagenase XI (Sigma-Aldrich Co. LLC.; 0.4 mg/mL) dissolved therein was added, followed by vigorous shaking for 10 seconds and then incubation at 37° C. for five minutes. The supernatants were then removed and 10 mL of the Collagenase solution was added again, followed by vigorous shaking for 10 seconds and then incubation at 37° C. for five minutes. […]
# The media thus collected were centrifuged at 8,000 rpm, 4° C. for five minutes to obtain supernatants (secretion samples). […] GIP was quantitated in these samples with a GIP ELISA kit (for rat/mouse) (Merck Millipore Corporation) to obtain GIP secretion rates.
# [4] = 30 min before lipid emulsion, compared to control group, FIG. 2B
# [5] = 30 min before triolein lipid emulsion, blood at 10, 30, 60 min, compared to control (solvent) group, FIG. 2A
smiles,measurement,setting,value
CCc1c(-c2ccccc2)c(-c2ccccc2)nn1-c1ccccc1-c1cccc(OCC(=O)O)c1 [BMS309403],pathological condition in mouse model of type-II diabetes or arteriosclerosis,[1],Amelioration in the pathological condition
same,Cmax of the blood GIP concentration,[2]; [4],statistically significantly reduced
same,iAUC (0-1 h) of the blood GIP concentration,[2]; [4],statistically significantly reduced
same,increase in the blood GIP concentration (ΔGIP) after the administration of lipid emulsions,[2]; [5],statistically significantly reduced
same,increase in the blood TG concentration (ΔTG) after the administration of lipid emulsions,[2]; [5],statistically significantly reduced
same,increase in the GIP secretion rate of PPM-stimulated cells,[3],dose-dependently suppressed
